The results in this text go back to patent publication US20240226228A1, “ANTIMICROBIAL PEPTOID HAVING IMPROVED SELECTIVITY AND ANTIMICROBIAL COMPOSITION COMPRISING SAME” (priority 2021, published 2024).

SMILES strings stand for the structures. Where a SMILES comes first, the peptide text is derived from it. [ ]: non-standard residue; d: D form. Gly(N(CH2)2(3-indolyl)) = O=C(O)CNCCc1c[nH]c2ccccc12; Nspe = C[C@H](NCC(=O)O)c1ccccc1; Nphe = O=C(O)CNCc1ccccc1; Nlys = NCCCCNCC(=O)O Some results are limits rather than exact numbers.

This series deals with red blood cells. Briefly: Hemolysis assay. In kind it is cell-based, Sprague-Dawley mouse. On the procedure:
To confirm cytotoxicity by the hemolytic activity of each peptoid synthesized in Example 1, hemolysis analysis was performed. The used blood was collected from a 13-week-old male Sprague-Dawley […] in a tube containing 158 UPS sodium heparin for preventing coagulation, and centrifuged at 4° C. for 10 minutes at 1,000 rpm. Afterward, the plasma was carefully removed, red blood cells were washed with phosphate-buffered saline (PBS: a mixed solution of 35 mM phosphate-buffered solution/150 mM NaCl, pH 7.4) three times and centrifuged at 1,000 rpm for 10 minutes. A 10% (v/v) red blood cell solution diluted in PBS was dispensed at 150 μL into a 96-well plate (microtiter plate), a peptoid solution was added at 50 μL, and 1% Triton X-100 was added. Afterward, the red blood cells were incubated at 37° C. for 1 hour, and the incubated 96-well plate was centrifuged at 1,000 rpm for 15 minutes. A supernatant was obtained and transferred to a new 96-well plate at 150 μL, and absorbance was measured using a spectrophotometer at 540 nm. Percent hemolysis may be calculated by the following Equation 1, and the corresponding results are shown in Tables 11 to 13. % Hemolysis=(A−C)/(B−C)×100 [Equation 1] In Equation 1, A is the absorbance of the peptoid solution at 540 nm, B is the absorbance of the 0.1% Triton X-100 at 540 nm, and C is the absorbance of the PBS solution at 540 nm.
For orientation: HC50 means the concentration that lyses half of the red blood cells. Regarding `C[C@@H](c1ccccc1)N(CC(N)=O)C(=O)CN(C(=O)CN(CCCCN)C(=O)CN(C(=O)CN(C(=O)CN(CCCCN)C(=O)CN(C(=O)CN(C(=O)CN(CCCCN)C(=O)CN(C(=O)CN(C(=O)CN(CCCCN)C(=O)CNCCc1c[nH]c2ccccc12)[C@@H](C)c1ccccc1)[C@@H](C)c1ccccc1)[C@@H](C)c1ccccc1)[C@@H](C)c1ccccc1)[C@@H](C)c1ccccc1)[C@@H](C)c1ccccc1)[C@@H](C)c1ccccc1` [Peptoid 3], the HC10 came to 6.3 µM, the HC50 stood at 13.9 µM and the “Hmax (100 μM)” value was determined as 100.5 ± 9.9%.

As for `C[C@@H](c1ccccc1)N(CC(=O)N(CCCCN)CC(=O)N(CC(=O)N(CC(=O)N(CCCCN)CC(=O)N(CC(=O)N(CC(=O)N(CCCCN)CC(=O)N(CC(=O)N(CC(=O)N(CCc1c[nH]c2ccccc12)CC(N)=O)[C@@H](C)c1ccccc1)[C@@H](C)c1ccccc1)[C@@H](C)c1ccccc1)[C@@H](C)c1ccccc1)[C@@H](C)c1ccccc1)[C@@H](C)c1ccccc1)C(=O)CN(C(=O)CNCCCCN)[C@@H](C)c1ccccc1` [Peptoid 4] (H-[Nlys][Nspe][Nspe][Nlys][Nspe][Nspe][Nlys][Nspe][Nspe][Nlys][Nspe][Nspe][Gly(N(CH2)2(3-indolyl))]-NH2), the HC10 was < 6.3 µM, the HC50 amounted to 6.7 µM and the “Hmax (100 μM)” value worked out at 103.2 ± 0.9%.

`C[C@@H](c1ccccc1)N(CC(=O)N(CCCCN)CC(=O)N(CC(=O)N(CC(=O)N(CCCCN)CC(=O)N(CC(=O)N(CC(=O)N(CCCCN)CC(=O)N(CC(=O)N(CC(=O)N(CCc1c[nH]c2ccccc12)CC(N)=O)[C@@H](C)c1ccccc1)[C@@H](C)c1ccccc1)[C@@H](C)c1ccccc1)[C@@H](C)c1ccccc1)[C@@H](C)c1ccccc1)[C@@H](C)c1ccccc1)C(=O)CN(C(=O)CN(CCCCN)C(=O)CNCCc1c[nH]c2ccccc12)[C@@H](C)c1ccccc1` [Peptoid 5] (H-[Gly(N(CH2)2(3-indolyl))][Nlys][Nspe][Nspe][Nlys][Nspe][Nspe][Nlys][Nspe][Nspe][Nlys][Nspe][Nspe][Gly(N(CH2)2(3-indolyl))]-NH2): the HC10 is < 6.3 µM, the HC50 came to 15.3 µM and the “Hmax (100 μM)” value came to 108.1 ± 2.7%.

For the compound `C[C@@H](c1ccccc1)N(CC(N)=O)C(=O)CN(C(=O)CN(CCCCN)C(=O)CN(C(=O)CN(C(=O)CN(CCCCN)C(=O)CN(C(=O)CN(C(=O)CN(CCCCN)C(=O)CN(C(=O)CN(C(=O)CN(CCCCN)C(=O)CN(CCc1c[nH]c2ccccc12)C(=O)CNCCc1c[nH]c2ccccc12)[C@@H](C)c1ccccc1)[C@@H](C)c1ccccc1)[C@@H](C)c1ccccc1)[C@@H](C)c1ccccc1)[C@@H](C)c1ccccc1)[C@@H](C)c1ccccc1)[C@@H](C)c1ccccc1` [Peptoid 6], the HC10 amounted to 9.6 µM, the HC50 was found to be 22.0 µM and the “Hmax (100 μM)” value came to 101.6 ± 5.8%.

Regarding `C[C@@H](c1ccccc1)N(CC(N)=O)C(=O)CN(C(=O)CN(CCCCN)C(=O)CN(CCc1c[nH]c2ccccc12)C(=O)CN(C(=O)CN(CCCCN)C(=O)CN(C(=O)CN(C(=O)CN(CCCCN)C(=O)CN(C(=O)CN(C(=O)CNCCCCN)[C@@H](C)c1ccccc1)[C@@H](C)c1ccccc1)[C@@H](C)c1ccccc1)[C@@H](C)c1ccccc1)[C@@H](C)c1ccccc1)[C@@H](C)c1ccccc1` [Peptoid 8], the HC10 is 12.8 µM, the HC50 stood at 28.4 µM and the “Hmax (100 μM)” value is listed as 105.1 ± 2.2%.

Regarding `C[C@@H](c1ccccc1)N(CC(N)=O)C(=O)CN(C(=O)CN(CCCCN)C(=O)CN(C(=O)CN(CCCCN)C(=O)CN(CCCCN)C(=O)CN(C(=O)CN(C(=O)CN(CCCCN)C(=O)CN(C(=O)CN(C(=O)CN(CCCCN)C(=O)CN(CCc1c[nH]c2ccccc12)C(=O)CNCCc1c[nH]c2ccccc12)[C@@H](C)c1ccccc1)[C@@H](C)c1ccccc1)[C@@H](C)c1ccccc1)[C@@H](C)c1ccccc1)[C@@H](C)c1ccccc1)[C@@H](C)c1ccccc1` [Peptoid 35], the HC10 was determined as 20.4 µM, the HC50 amounted to 63.0 µM and the “Hmax (100 μM)” value came out at 82.6 ± 3.2%.

Consider `C[C@@H](c1ccccc1)N(CC(N)=O)C(=O)CN(C(=O)CN(CCCCN)C(=O)CN(C(=O)CN(C(=O)CN(CCCCN)C(=O)CN(C(=O)CN(C(=O)CN(CCCCN)C(=O)CN(C(=O)CN(CCCCN)C(=O)CN(CCCCN)C(=O)CN(CCc1c[nH]c2ccccc12)C(=O)CNCCc1c[nH]c2ccccc12)[C@@H](C)c1ccccc1)[C@@H](C)c1ccccc1)[C@@H](C)c1ccccc1)[C@@H](C)c1ccccc1)[C@@H](C)c1ccccc1)[C@@H](C)c1ccccc1` [Peptoid 36], for which the HC10 is 15.3 µM, the HC50 amounted to 39.4 µM and the “Hmax (100 μM)” value was determined as 89.1 ± 3.4%.

As to `C[C@@H](c1ccccc1)N(CC(=O)N(CCCCN)CC(=O)N(CC(=O)N(CC(=O)N(CCCCN)CC(=O)N(CC(=O)N(CC(=O)N(CCCCN)CC(=O)N(CC(=O)N(CC(=O)N(CC(N)=O)Cc1ccccc1)[C@@H](C)c1ccccc1)[C@@H](C)c1ccccc1)[C@@H](C)c1ccccc1)[C@@H](C)c1ccccc1)[C@@H](C)c1ccccc1)[C@@H](C)c1ccccc1)C(=O)CN(C(=O)CN(CCCCN)C(=O)CNCc1ccccc1)[C@@H](C)c1ccccc1` [Peptoid 42] (H-[Nphe][Nlys][Nspe][Nspe][Nlys][Nspe][Nspe][Nlys][Nspe][Nspe][Nlys][Nspe][Nspe][Nphe]-NH2), the HC10 is < 3.1 µM, the HC50 came to 6.6 µM and the “Hmax (100 μM)” value worked out at 105.9 ± 1.1%.

For the compound `C[C@@H](c1ccccc1)N(CC(N)=O)C(=O)CN(C(=O)CN(CCCCN)C(=O)CN(C(=O)CN(C(=O)CN(CCCCN)C(=O)CN(C(=O)CN(C(=O)CN(CCCCN)C(=O)CN(C(=O)CN(C(=O)CN(CCCCN)C(=O)CN(Cc1ccccc1)C(=O)CNCc1ccccc1)[C@@H](C)c1ccccc1)[C@@H](C)c1ccccc1)[C@@H](C)c1ccccc1)[C@@H](C)c1ccccc1)[C@@H](C)c1ccccc1)[C@@H](C)c1ccccc1)[C@@H](C)c1ccccc1` [Peptoid 43], the HC10 was < 3.1 µM, the HC50 amounted to 6.4 µM and the “Hmax (100 μM)” value is reported as 105.6 ± 3.8%.

On to `C[C@@H](c1ccccc1)N(CC(N)=O)C(=O)CN(CCCCN)C(=O)CN(C(=O)CN(C(=O)CN(CCCCN)C(=O)CN(C(=O)CN(C(=O)CN(CCCCN)C(=O)CN(C(=O)CN(CCCCN)C(=O)CN(CCCCN)C(=O)CN(C(=O)CNCCc1c[nH]c2ccccc12)[C@@H](C)c1ccccc1)[C@@H](C)c1ccccc1)[C@@H](C)c1ccccc1)[C@@H](C)c1ccccc1)[C@@H](C)c1ccccc1)[C@@H](C)c1ccccc1` [Peptoid 61], for which the HC10 stood at 19.3 µM, the HC50 amounted to 65.4 µM and the “Hmax (100 μM)” value came out at 79.9 ± 0.7%.

`C[C@@H](c1ccccc1)N(CC(N)=O)C(=O)CN(CCCCN)C(=O)CN(C(=O)CN(C(=O)CN(CCCCN)C(=O)CN(C(=O)CN(CCCCN)C(=O)CN(CCCCN)C(=O)CN(C(=O)CN(C(=O)CN(CCCCN)C(=O)CN(C(=O)CNCCc1c[nH]c2ccccc12)[C@@H](C)c1ccccc1)[C@@H](C)c1ccccc1)[C@@H](C)c1ccccc1)[C@@H](C)c1ccccc1)[C@@H](C)c1ccccc1)[C@@H](C)c1ccccc1` [Peptoid 62]: the HC10 is 36.2 µM, the HC50 is > 100 µM and the “Hmax (100 μM)” value is reported as 44.8 ± 8.1%.

`C[C@@H](c1ccccc1)N(CC(N)=O)C(=O)CN(CCCCN)C(=O)CN(C(=O)CN(CCCCN)C(=O)CN(CCCCN)C(=O)CN(C(=O)CN(C(=O)CN(CCCCN)C(=O)CN(C(=O)CN(C(=O)CN(CCCCN)C(=O)CN(C(=O)CNCCc1c[nH]c2ccccc12)[C@@H](C)c1ccccc1)[C@@H](C)c1ccccc1)[C@@H](C)c1ccccc1)[C@@H](C)c1ccccc1)[C@@H](C)c1ccccc1)[C@@H](C)c1ccccc1` [Peptoid 63]: the HC10 was found to be 85.0 µM, the HC50 was > 100 µM and the “Hmax (100 μM)” value worked out at 12.7 ± 0.9%.

As to `C[C@@H](c1ccccc1)N(CC(=O)N(CCCCN)CC(=O)N(CC(=O)N(CC(=O)N(CCCCN)CC(=O)N(CC(=O)N(CC(=O)N(CCCCN)CC(=O)N(CC(=O)N(CC(=O)N(CCCCN)CC(=O)N(CCCCN)CC(N)=O)[C@@H](C)c1ccccc1)[C@@H](C)c1ccccc1)[C@@H](C)c1ccccc1)[C@@H](C)c1ccccc1)[C@@H](C)c1ccccc1)[C@@H](C)c1ccccc1)C(=O)CNCCc1c[nH]c2ccccc12` [Peptoid 64] (H-[Gly(N(CH2)2(3-indolyl))][Nspe][Nlys][Nspe][Nspe][Nlys][Nspe][Nspe][Nlys][Nspe][Nspe][Nlys][Nlys]-NH2), the HC10 was found to be 70.7 µM, the HC50 was > 100 µM and the “Hmax (100 μM)” value worked out at 18.9 ± 2.9%.
